For two molecules, IC50 and change in vivo results are on record in US20140243292A1, “SUBSITUTED 2-(CHROMAN-6-YLOXYL)-THIAZOLES AND THEIR USE AS PHARMACEUTICALS” (Sanofi, priority 2011, published 2014).

The structures appear in SMILES notation.

One assay concerns the target T1, human NCX1 (Homo sapiens, UniProt P32418).
T1 construct: expressed in transfected cells
Briefly: NCX1 inhibition, forward mode (Ca2+ efflux out of cells), FLIPR calcium assay. The assay is classed as cell-based. Conditions: CHO cells stably expressing human NCX1, read-out: NCX1fw IC50. The source says:
The sodium/calcium exchanger NCX1 can transport calcium ions and sodium ions through the cell membrane. The transport is an exchange of Ca^2+ and Na^+ in two directions depending on membrane potential and ion gradients. At the first direction, named “forward mode” or “calcium export mode”, Ca^2+ is transported out of the cell and Na^+ is transported into the cell. At the other direction, named “reverse mode” or “calcium import mode”, the transport directions are vice versa. The effect of the compounds of the invention on NCX1 was determined in CHO cells stably expressing human NCX1 (gene symbol SLC8A1; cf. WO 2009/115238). The assay is based on the monitoring of intracellular Ca^2+ concentrations using a calcium-sensitive fluorescence dye which is detected by means of a FLIPR device (Fluorimetric Imaging Plate Reader, Molecular Devices).
The assay is based on the monitoring of intracellular Ca^2+ concentrations using the PBX Calcium Assay Kit from BD (Becton, Dickinson and Company) with calcium indicator dye 51-9000177BKa (BD, 640177). CHO cells expressing NCX1 were loaded with the dye, and after a preincubation period with the test compound, Ionomycin (Calbiochem, 407950) was added. Ionomycin is an ionophor for Ca^2+ ions mediating an increase of intracellular Ca^2+ ions. Consequently, intracellular Ca^2+ ions are exchanged against extracellular Na^+ ions (Ca^2+ efflux, forward mode). The decrease of intracellular Ca^2+ ions was detected by measuring the fluorescence of the calcium indicator dye at a wavelength of 520 nm by a FLIPR device.
Briefly, similarly as for the reverse mode, for the forward mode transport assay 18000 cells per well were seeded into a 96 well microplate (Corning COSTAR 3904) and incubated overnight in culture medium (cf. above). A total volume of 100 μl medium per well was used. For the preparation of the FLIPR assay, the culture medium was removed from the plates and 100 μl of assay buffer (133.8 mM NaCl (Sigma, S5886); 4.7 mM KCl (Sigma, P3911); 1.25 mM MgCl2 (Merck, 1.05833.0250); 3.5 mM CaCl2(Merck, 1.02083.0250); 5 mM glucose (Sigma, G7021); 10 mM Hepes (Sigma, H4034); pH 7.4)) were added to each well in a washing step. Assay buffer was removed, and 100 μl of a solution of the test compound in assay buffer in different concentrations were added into the wells. Further, 100 μl of dye solution (0.09% (v/v) calcium indicator dye, 9.1% (v/v) signal enhancer (from PBX Calcium Assay Kit); in assay buffer) were added into each well. The plates were incubated in the dark at room temperature for 60 min. Meanwhile a 10 μM solution of Ionomycin in assay buffer (additionally containing 0.05% fetal calf serum (cf. above); 4° C.) was prepared and stored in the wells of a 96 well microplate (96 well microplate, polypropylene, U-shape (Greiner Bio-One, 650201)). The fluorescence monitoring was performed at 60 measuring points with measurement intervals of 2 sec. After the fifth measuring point, 50 μl of the Ionomycin solution were added to each well of the assay plate to give a final Ionomycin concentration of 2 μM. For the determination of the IC50 values the minimal fluorescence value was subtracted from the maximal fluorescence value for the fifteenth to fifty-fifth measuring points. The calculation of the IC50 values via the percentage inhibitions of Ca^2+ efflux out of cells (forward mode) effected by the test compound was performed in Biost@t Speed 2.0. “NCX1fw IC50” in Table 2 means the IC50 value for inhibition of NCX1 in forward mode (in μM (micromol/liter)).

The subject of a further assay is Sprague-Dawley rats. Briefly: In vivo method for determining the effect on heart contractility (left ventricular dp/dtmax). The note with it: Rattus norvegicus, iv, anesthetized rats, vs solvent control, read-out: Contractility increase (%); for change in vivo at 0.1 mg/kg: i.v. bolus injection 0.1 mg/kg; for change in vivo at 0.3 mg/kg: i.v. bolus injection 0.3 mg/kg; for change in vivo at 1 mg/kg: i.v. bolus injection 1.0 mg/kg. How it is done:
Adult male Sprague-Dawley rats (Harlan Winkelmann, Borchen, Germany) weighing 340 to 370 g were anesthetized with pentobarbital (100 mg/kg i.p.) and ventilated with a mixture of oxygen (40%) and room air (60%) at a tidal volume of 1 ml/100 g at 60 breaths/min. Body temperature was maintained at 36.5±0.3° C. with a heating lamp and was monitored with a rectal thermo sensor. Systemic blood pressure was measured in the left carotid artery using a pressure transducer (Combitrans; B. Braun Melsungen AG, Melsungen, Germany) connected to a DC-bridge-amplifier (PLUGSYS/ADC Type 663; Harvard Apparatus GmbH, March-Hugstetten, Germany). The electrocardiogram was measured as lead II via subcutaneously placed electrodes connected to a Heart-Rate-Module ([…] Type 669; Harvard Apparatus GmbH, March-Hugstetten, Germany). A micro-tip catheter (2 French, SPR-320; Millar Instruments, Houston, Tex., USA) was placed via the right carotid artery into the left ventricle, and the left ventricular pressure (LVP) and the enddiastolic pressure (EDP) were continuously measured. Registration of the hemodynamic data was performed via an analog digital converter by a personal computer using Notocord software (HEM version 3.5). Left ventricular contractility (dp/dtmax) and relaxation (dp/dtmin) were calculated from the LVP signal. For intravenous administration of the test compounds, the left jugular vein was prepared and a PP-50 catheter was inserted. Test compounds were administered either by intravenous bolus injection or by intravenous infusion by means of an infusion pump (Unita; B. Braun Melsungen AG, Melsungen, Germany). […] In a typical experiment, several dosages of the test compound were administered subsequently at increasing doses. Statistical significance of the data obtained with drug vs. control experiments, in which solvent was administered, was evaluated with the 2-sided ANOVA test (program Everstat). Increases in left ventricular contractility (percent increase) by example compounds are given in Table 3 in comparison to control experiments in which solvent was administered.

Usually IC50 stands for the midpoint of a concentration-inhibition curve.

Regarding `Cc1ccccc1C1CCc2cc(Oc3ncc(C(=O)NCCO)s3)ccc2O1` (centres unmarked) [Example 299, 2-(2-o-Tolyl-chroman-6-yloxy)-thiazole-5-carboxylic acid (2-hydroxy-ethyl)-amide], on human NCX1, the IC50 is 600 nM. For the same molecule, in the assay on Sprague-Dawley rats, the change in vivo at 0.1 mg/kg was 36%, the change in vivo at 0.3 mg/kg came out at 62% and the change in vivo at 1 mg/kg was found to be 95%.

For `Cc1ccccc1C1CCc2cc(Oc3ncc(CNC(=O)c4ccno4)s3)ccc2O1` (centres unmarked) [Example 329, Isoxazole-5-carboxylic acid [2-(2-o-tolyl-chroman-6-yloxy)-thiazol-5-ylmethyl]-amide], on human NCX1, the IC50 was determined as 2500 nM. In addition, in the assay with Sprague-Dawley rats, the change in vivo at 0.1 mg/kg came out at 24%, the change in vivo at 0.3 mg/kg was 53% and the change in vivo at 1 mg/kg was found to be 101%.
